Results reported in PMC8286840, “Identifying SARS-CoV-2 antiviral compounds by screening for small molecule inhibitors of Nsp3 papain-like protease” (Biochemical Journal, 2021).
Counter-ions that a name gives are not always drawn. Like-named read-outs stand apart in the source and are kept apart here.

Experiments:
[1] = biological target: T1, SARS-CoV-2 PLpro (nsp3 1564–1878) (Severe acute respiratory syndrome coronavirus 2, UniProt P0DTD1); assay: biochemical; parameters: FRET-quenched peptide (Pro3) cleavage by PLpro, 10 min pre-incubation, slope over 20 min, normalised to no-compound control; conditions: high concentration screen, read-out: % of control remaining
[2] = biological target: T1, SARS-CoV-2 PLpro (nsp3 1564–1878); assay: biochemical; parameters: FRET-quenched peptide (Pro3) cleavage by PLpro, 10 min pre-incubation, slope over 20 min, normalised to no-compound control; conditions: low concentration screen, read-out: % of control remaining

SMILES: O=C1NC(=O)c2c1c(-c1ccccc1Cl)cc1[nH]c3ccc(O)cc3c21 [Wee1 Inhibitor]
- remaining activity at 3.75 µM ([1]; Well no.=2683): 97.7%
- remaining activity at 1.25 µM ([2]; Well no.=2683): 97.3%

SMILES: C[C@H]1O[C@@H](n2cc(F)c(=O)[nH]c2=O)[C@H](O)[C@@H]1O [5-fluoro-5'-deoxyuridine]
- remaining activity at 3.75 µM ([1]; Well no.=663): 98.8%
- remaining activity at 1.25 µM ([2]; Well no.=663): 102%

SMILES: Cc1ccccc1C(=O)c1ccc(Nc2ccc(Br)cc2N)cc1Cl [EO 1428 - (2-Methylphenyl)-[4-[(2-amino-4-bromophenyl)amino]-2-chlorophenyl]methanone]
- remaining activity at 3.75 µM ([1]; Well no.=2634): 88.7%
- remaining activity at 1.25 µM ([2]; Well no.=2634): 87.4%

SMILES: CN1C(C(=O)Nc2ccccn2)=C(O)c2sccc2S1(=O)=O [Tenoxicam]
- remaining activity at 3.75 µM ([1]; Well no.=2299): 101%
- remaining activity at 1.25 µM ([2]; Well no.=2299): 98.3%

SMILES: O=C1NC(=O)C(c2c[nH]c3ccccc23)=C1c1c[nH]c2ccccc12 [Bisindolylmaleimide IV]
- remaining activity at 3.75 µM ([1]; Well no.=2355): 99.7%
- remaining activity at 1.25 µM ([2]; Well no.=2355): 101%

SMILES: C[C@@H]1C(=O)O[C@H]2C[C@@]34[C@H]5C[C@@H](C(C)(C)C)[C@]36[C@@H](OC(=O)[C@@H]6O)O[C@@]4(C(=O)O5)[C@]21O [Ginkgolide A]
- remaining activity at 3.75 µM ([1]; Well no.=1908): 96.1%
- remaining activity at 3.75 µM ([1]; Well no.=3613): 104%
- remaining activity at 1.25 µM ([2]; Well no.=1908): 98.7%
- remaining activity at 1.25 µM ([2]; Well no.=3613): 106%

SMILES: O=C(Nc1ccncc1)C(=O)c1cn(Cc2ccc(Cl)cc2)c2ccccc12 [Indibulin]
- remaining activity at 3.75 µM ([1]; Well no.=6784): 98.9%
- remaining activity at 1.25 µM ([2]; Well no.=6784): 98.6%

SMILES: Nc1nnc(-c2cccc(Cl)c2Cl)c(N)n1 [Lamotrigine]
- remaining activity at 3.75 µM ([1]; Well no.=977): 101%
- remaining activity at 3.75 µM ([1]; Well no.=1832): 92.9%
- remaining activity at 1.25 µM ([2]; Well no.=977): 99.1%
- remaining activity at 1.25 µM ([2]; Well no.=1832): 95.1%

SMILES: O=C1c2cccc(O)c2C(=O)c2c(O)cc(CO)cc21 [Aloe-emodine]
- remaining activity at 3.75 µM ([1]; Well no.=3156): 102%
- remaining activity at 1.25 µM ([2]; Well no.=3156): 105%

SMILES: CCOc1cc(CC(=O)N[C@@H](CC(C)C)c2ccccc2N2CCCCC2)ccc1C(=O)O [Repaglinide]
- remaining activity at 3.75 µM ([1]; Well no.=4817): 95.8%
- remaining activity at 1.25 µM ([2]; Well no.=4817): 101%

SMILES: CN(C)C(=N)NC(=N)N [Metformin HCl]
- remaining activity at 3.75 µM ([1]; Well no.=8430): 94.9%
- remaining activity at 1.25 µM ([2]; Well no.=8430): 94.8%

SMILES: C[C@@]1(C2CCCC2)Cc2cc(OCC(=O)O)c(Cl)c(Cl)c2C1=O [R(+)-IAA-94]
- remaining activity at 3.75 µM ([1]; Well no.=921): 105%
- remaining activity at 1.25 µM ([2]; Well no.=921): 104%

SMILES: Cc1cncc(CN2CCC(=C3c4ccc(Cl)cc4CCc4cccnc43)CC2)c1 [Rupatadine Fumarate]
- remaining activity at 3.75 µM ([1]; Well no.=4925): 101%
- remaining activity at 1.25 µM ([2]; Well no.=4925): 103%

SMILES: CCCCS(=N)(=O)CCC(N)C(=O)O (centres unmarked) [Buthionine sulfoximine]
- remaining activity at 3.75 µM ([1]; Well no.=4086): 100%
- remaining activity at 1.25 µM ([2]; Well no.=4086): 101%

SMILES: C[N+]1(C)CCCC(OC(=O)C(O)(c2ccccc2)c2ccccc2)C1 (centres unmarked) [Mepenzolate (Bromide)]
- remaining activity at 3.75 µM ([1]; Well no.=7911): 100%
- remaining activity at 1.25 µM ([2]; Well no.=7911): 102%

SMILES: Cc1ccc(NC(=O)Nc2cc([C@H]3C[C@H]3C(=O)O)ccc2N(CC(C)C)CC(C)C)cc1 [IDO-IN-4]
- remaining activity at 3.75 µM ([1]; Well no.=8647): 106%
- remaining activity at 1.25 µM ([2]; Well no.=8647): 104%

SMILES: O=S(=O)(c1cccc2cnccc12)N1CCCNCC1 [HA 1077, Dihydrochloride Fasudil]
- remaining activity at 3.75 µM ([1]; Well no.=2646): 100%
- remaining activity at 1.25 µM ([2]; Well no.=2646): 94.1%

SMILES: CN1C(=O)CC[C@H]1c1cccnc1 [(-)-Cotinine]
- remaining activity at 3.75 µM ([1]; Well no.=228): 99.4%
- remaining activity at 3.75 µM ([1]; Well no.=3103): 101%
- remaining activity at 1.25 µM ([2]; Well no.=228): 97.9%
- remaining activity at 1.25 µM ([2]; Well no.=3103): 99.3%

SMILES: C[C@H](CSC(=O)c1ccccc1)C(=O)N1C[C@@H](Sc2ccccc2)C[C@H]1C(=O)O [Zofenopril calcium]
- remaining activity at 3.75 µM ([1]; Well no.=5564): 103%
- remaining activity at 1.25 µM ([2]; Well no.=5564): 102%

SMILES: O=C(O)c1ccc(NC(=O)[C@H](CC2CCCC2)n2cnc(C(F)(F)F)c2)nc1 [(S)-6-(3-cyclopentyl-2-(4-(trifluoromethyl)-1H-imidazol-1-yl)propanamido)nicotinic acid]
- remaining activity at 3.75 µM ([1]; Well no.=6066): 86.8%
- remaining activity at 1.25 µM ([2]; Well no.=6066): 83%

SMILES: COc1c(N2C[C@@H]3CCCN[C@@H]3C2)c(F)cc2c(=O)c(C(=O)O)cn(C3CC3)c12 [Moxifloxacin.HCl]
- remaining activity at 3.75 µM ([1]; Well no.=1568): 96.5%
- remaining activity at 1.25 µM ([2]; Well no.=1568): 97.8%

SMILES: CC(=O)NS(=O)(=O)c1ccc(N)cc1 [Sulfacetamide (Sodium)]
- remaining activity at 3.75 µM ([1]; Well no.=7510): 102%
- remaining activity at 1.25 µM ([2]; Well no.=7510): 103%

SMILES: O=C(Oc1cccc(F)c1OC(=O)c1cccc(O)c1)c1cccc(O)c1 [WZB117]
- remaining activity at 3.75 µM ([1]; Well no.=8770): 101%
- remaining activity at 1.25 µM ([2]; Well no.=8770): 102%

SMILES: CC(=O)O[C@H]1[C@H]2[C@@H](OC(=O)Cc3ccccc3)[C@@H](C)C[C@]2(OC(C)=O)C(=O)/C(C)=C/[C@@H]2[C@H](CC[C@@]13CO3)C2(C)C [Euphorbiasteroid]
- remaining activity at 3.75 µM ([1]; Well no.=3605): 109%
- remaining activity at 1.25 µM ([2]; Well no.=3605): 103%

SMILES: O=C(Nc1cnc(-c2ccncc2F)c(-c2cccnc2)n1)C1CC1 [LAS101057]
- remaining activity at 3.75 µM ([1]; Well no.=8599): 103%
- remaining activity at 1.25 µM ([2]; Well no.=8599): 105%

SMILES: COc1c(C)c2c(c(O)c1C/C=C(\C)CCC(=O)O)C(=O)OC2 [Mycophenolic Acid]
- remaining activity at 3.75 µM ([1]; Well no.=1553): 99.9%
- remaining activity at 3.75 µM ([1]; Well no.=3415): 98.7%
- remaining activity at 1.25 µM ([2]; Well no.=1553): 100%
- remaining activity at 1.25 µM ([2]; Well no.=3415): 96.4%

SMILES: C[N+]1(C)[C@@H]2CC[C@H]1C[C@@H](OC(=O)C(O)c1ccccc1)C2 (some centres unmarked) [Homatropine (methylbromide)]
- remaining activity at 3.75 µM ([1]; Well no.=7379): 96%
- remaining activity at 1.25 µM ([2]; Well no.=7379): 94.7%

SMILES: N=C(N)NCCCCN [Agmatine sulfate]
- remaining activity at 3.75 µM ([1]; Well no.=261): 96.2%
- remaining activity at 1.25 µM ([2]; Well no.=261): 93.6%

SMILES: CN1C[C@H](O)[C@@H](O)[C@H](O)[C@H]1CO [N-Methyl-1-deoxynojirimycin]
- remaining activity at 3.75 µM ([1]; Well no.=1016): 98.3%
- remaining activity at 1.25 µM ([2]; Well no.=1016): 99.2%

SMILES: COC(=O)[C@H](c1ccccc1Cl)N1CCc2sccc2C1 [Clopidogrel]
- remaining activity at 3.75 µM ([1]; Well no.=2277): 93%
- remaining activity at 1.25 µM ([2]; Well no.=2277): 90.2%

SMILES: N[C@](CCCCB(O)O)(CCN1CCCCC1)C(=O)O [Arginase inhibitor 1]
- remaining activity at 3.75 µM ([1]; Well no.=8697): 105%
- remaining activity at 1.25 µM ([2]; Well no.=8697): 106%

SMILES: COc1ccc2cc(OCC3(C(=O)O)CN(C(=O)c4ccc(F)cc4)C3)ccc2c1 [1-(4-fluorobenzoyl)-3-(((6-methoxynaphthalen-2-yl)oxy)methyl)azetidine-3-carboxylic acid]
- remaining activity at 3.75 µM ([1]; Well no.=5909): 102%
- remaining activity at 1.25 µM ([2]; Well no.=5909): 103%

SMILES: NCCCS(=O)(=O)O [3-Amino-1-propanesulfonic acid sodium]
- remaining activity at 3.75 µM ([1]; Well no.=301): 98.1%
- remaining activity at 1.25 µM ([2]; Well no.=301): 98%
